Where two headings read alike, the source gives them in different places.
Experiments:
[1] = In vivo p.o. dosing: plasma and colon tissue concentrations (Protocols 1 and 2); parameters: species or system female C57BL/6 mice; conditions: female, C57BL/6, mouse, colon, po; mice, 25 mg/kg p.o., Time = 4 h; read-out: Colon Concentration After p.o. Dosing, Mean
Method: These protocols are described below under the heading In vivo Studies. Three non-fasted female C57BL/6 mice were orally administered test compound at a dose of 25 mg/kg p.o. as a solution in 20% hydroxypropyl-beta-cyclodextrin (HPβCD) at a dose volume of 5 mL/kg. Blood samples were collected at 0.5, 2, and 4 h post dose via retro-orbital bleed or venipuncture of the dorsal metatarsal vein. Blood samples were collected into tubes containing anticoagulant (Heparin-Na) and placed on wet ice. The plasma fraction was separated by centrifugation and frozen at −20° C. for up to 4 h and −80° C. after 4 h unless analyzed shortly after sample collection. Colon samples were collected at 4 h post dose. […] The colon was further washed by putting it in 5 mL of saline and shaken for 5 seconds. The colon sample was then patted dry, weighed, and homogenized as 1 part tissue (g) to 4 parts HPLC grade water (mL). Concentrations of the compound in plasma and colon homogenate were determined using a qualified liquid chromatography-triple quadrupole mass spectrometry (LC-MS/MS) method. […] Three non-fasted female C57BL/6 mice were orally administered test compound at a dose of 25 mg/kg p.o. as a solution in 20% HPβCD at a dose volume of 5 mL/kg. Blood samples were collected at 0.5, 2, and 4 h post dose via retro-orbital bleed or dorsal metatarsal vein. Blood samples were collected into tubes containing anticoagulant (Heparin-Na) and placed on wet ice. The plasma fraction was separated by centrifugation and frozen at −20° C. for up to 4 h and −80° C. after 4 h unless analyzed shortly after sample collection. Colon samples were collected at 4 h post dose. From 2 cm below the cecum, a 4 cm sample of the colon was dissected, cut open on the longitudinal axis, and the solid contents removed by flushing with 2 mL of saline. The colon was further washed by putting it in 5 mL of saline and shaken for 5 seconds. The colon sample was then patted dry, weighed, and homogenized as 1 part tissue (g) to 4 parts HPLC grade water (mL). Concentrations of the compound in plasma and colon homogenate were determined using a qualified liquid chromatography-triple quadrupole mass spectrometry (LC-MS/MS) method.

[2] = Solubility assays in simulated gastric and simulated intestinal fluids; type: physicochemical; conditions: thermodynamic from solid, 2-5 days
Method: Test compounds were dissolved in DMSO at a concentration of 10 mM. The test compounds were dispensed (20 μL) into Nunc 1-mL-96-Deep-Well-PP plates, and the DMSO was evaporated via nitrogen blow down from a TurboVap 96 for 6 hours or until a dry residue was produced. Then, 400 μL of solubility media was added to the well containing the dry solid. […] After the incubation period, the samples were filtered through an AcroPrep 1-mL-96-Filter plate into a new 2-mL-96-Deep-Well-PP plate, and the supernatants were quantified by UV-HPLC using a 3-point calibration ranging from 0.004-0.55 mM. The solubility for each compound was calculated from the following equation: […] Solubilities are reported as long as the compound under study was sufficiently stable to complete the corresponding solubility determination.

P-gp (MDR1) = test: MDCK-MDR1 permeability assay; type: in vitro ADME; conditions: dog, MDCK-MDR1, pH 7.4, @ 5 μM
Method: Permeability measurements were conducted according to the Cyprotex protocol using the MDCK-MDR1 cell line obtained from the NIH (Rockville, Md., USA). Cells between passage numbers 6-30 were seeded onto a Multiscreen Plate™ (Millipore) at a cell density of 3.4×10^5 cells/cm^2 and cultured for three days before permeability studies were conducted. The cells in this assay form a cohesive sheet of a single cell layer filing the surface area of the culture dish, also known as a confluent monolayer, and on day four the test compound was added to the apical side of the membrane and the transport of the compound across the monolayer was monitored over a time period of 60 min.
Test compounds were dissolved in DMSO at a concentration of 10 mM. The dosing solutions were prepared by diluting test compound with assay buffer (Hanks Balanced Salt Solution), pH 7.4, at a final concentration of 5 μM. For assessment of apical to basolateral (“A-B”) permeability, buffer was removed from the apical compartment and replaced with test compound dosing solution with or without the permeability glycoprotein (“PgP”, “P-gP”, “Pgp” or “P-gp”) inhibitor elacridar (2 μM). For assessment of basolateral to apical (“B-A”) permeability, buffer was removed from the companion plate and replaced with test compound dosing solution. Incubations were carried out in duplicate at 37° C. in an atmosphere of 5% CO2 with a relative humidity of 95%. Each assay included the reference markers propranolol (high permeability) and prazosin (PgP substrate). After incubation for 60 minutes, apical and basolateral samples were diluted and test compounds quantified by LC/MS/MS using an 8-point calibration in the range 0.0039 to 3 μM with appropriate dilution of the samples (receiver dilution factor=1; donor and C0 dilution factor=10). The permeability coefficient (Papp) for each compound was calculated from the following equation: Papp=(dQ/dt)/(C0×S), where dQ/dt is the rate of permeation of the drug across the cells, C0 is the donor compartment concentration at time zero, and S is the area of the cell monolayer.
The second and third columns in Table 7 show the values of Papp(A-B) for the apical-to-basolateral compound transport without (second column) and with a P-gp inhibitor (third column, noted as P^eapp(A-B)) that was elacridar. Papp(A-B) gives an indication of permeation extent across the cells in this assay, which is envisaged to model the transcellular transport across Pgp-expressing cells, such as Pgp-expressing gastrointestinal tract cells. P^eapp(A-B) values (Papp(A-B) in the presence of the P-gp inhibitor) given in column 3 are determined to confirm the role of P-gp in the compound efflux. […] Test compound efflux ratios are given in the fifth column of Table 7 as Papp(B-A)/Papp(A-B) by using the corresponding permeability coefficient values from the fourth and second columns in the same table.

concentration at 4 h [1]: 4780 ng/g
solubility ([2]; fassif, simulated intestinal fluid, fasted state pH 6.5, ambient temperature, read-out: SIF solubility): > 400 µM
solubility ([2]; simulated gastric fluid, ambient temperature, read-out: SGF solubility): > 400 µM
Papp A→B at 60 min, 5 μM (P-gp (MDR1); apical to basolateral, without P-gp inhibitor): < 0.4 ×10⁻⁶ cm/s
Papp B→A at 60 min, 5 μM (P-gp (MDR1); basolateral to apical): 1.1 ×10⁻⁶ cm/s
SMILES: N#CC[C@H]1CC[C@H](n2c(CC(=O)Nc3cc[nH]n3)nc3cnc4[nH]ccc4c32)CC1 [Ex. 74, 2-(1-((1r,4r)-4-(Cyanomethyl)cyclohexyl)-1,6-dihydroimidazo[4,5-d]pyrrolo[2,3-b]pyridin-2-yl)-N-(1H-pyrazol-3-yl)acetamide]
